Source: US20080004306A1, “Compositions and methods for modulating gated ion channels” (PainCeptor Pharma Corporation, priority 2006, published 2008)

Experiments:
hASIC1a [1] = target: T1, hASIC1a (Homo sapiens, UniProt P78348); experiment: Two-electrode voltage clamp in Xenopus laevis oocytes expressing gated ion channels (Xo, Example 3); type: cell-based; settings: for inhibition at 50 µM: read-out: % inh. at 50 μM (Xo)
T1 construct: expressed in transfected cells; host or cells: Xenopus laevis oocytes, nuclear microinjection of an expression vector such as pCDNA3
T1 sequence (P78348 1-528): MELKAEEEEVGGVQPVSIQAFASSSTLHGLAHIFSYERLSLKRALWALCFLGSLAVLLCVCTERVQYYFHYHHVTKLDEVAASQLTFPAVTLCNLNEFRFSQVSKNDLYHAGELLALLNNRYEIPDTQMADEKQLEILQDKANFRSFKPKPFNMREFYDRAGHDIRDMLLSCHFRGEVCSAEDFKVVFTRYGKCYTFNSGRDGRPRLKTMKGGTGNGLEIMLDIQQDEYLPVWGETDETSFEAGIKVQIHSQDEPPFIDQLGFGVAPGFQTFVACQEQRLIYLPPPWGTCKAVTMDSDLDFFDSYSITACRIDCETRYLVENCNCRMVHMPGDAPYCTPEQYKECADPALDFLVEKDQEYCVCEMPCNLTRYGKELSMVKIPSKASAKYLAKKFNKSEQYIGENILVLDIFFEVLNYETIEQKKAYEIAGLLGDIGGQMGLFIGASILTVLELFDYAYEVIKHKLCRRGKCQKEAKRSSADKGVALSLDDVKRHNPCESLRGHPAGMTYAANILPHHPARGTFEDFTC
Protocol: Two-electrode voltage clamp electrophysiological assays in Xenopus laevis oocytes expressing gated ion channels are performed as follows:
Oocytes are surgically removed from adult Xenopus laevis and treated for 2 h at room temperature with 1 mg/ml type I collagenase (Sigma) in Barth's solution under mild agitation. Selected oocytes at stage IV-V are defolliculated manually before nuclear microinjection of 2.5-5 ng of a suitable expression vector, such as pCDNA3, comprising the nucleotide sequence encoding a gated ion channel subunit protein. In such an experiment, the oocytes express homomultimeric proton-gated ion channels on their surface. In an alternate experiment, one, two, three or more vectors comprising the coding sequences for distinct gated ion channel subunits are co-injected in the oocyte nuclei. In the latter case, oocytes express heteromultimeric proton-gated ion channels. […] Once impaled with the microelectrodes, oocytes are continuously superfused at 10-12 ml/min with a modified Ringer's solution containing 97 mM NaCl, 2 mM KCl, 1.8 mM CaCl2, and 10 mM HEPES brought to pH 7.4 with NaOH (Control Ringer). Test Ringer solution is prepared by replacing HEPES with MES and adjusting the pH to the desired acidic value. Compounds of the present invention are prepared in both the Control and Test Ringer solutions and applied to oocytes at room temperature through a computer-controlled switching valve system. […] Similarly, recordings can also be acquired in an automated multichannel oocytes system as the OpusExpress™ (Molecular Devices, Sunnyvale, USA).

hASIC1a [2] = target: T1, hASIC1a; experiment: Whole cell patch clamp in HEK293 cells transfected with hASIC1a (Example 2); type: cell-based; settings: six point dose-response, whole cell patch clamp (FIG. 1B), read-out: IC50, inhibition of acid-induced hASIC1a activity
Protocol: Another example of an in vitro assessment method consists of using mammalian heterologous expression systems, which are known to the skilled in the art, and include a variety of mammalian cell lines such as COS, HEK, e.g., HEK293and/or CHO, cells. Cell lines are transfected with gated ion channel(s) and used to perform electrophysiology as follows:
All experiments are performed at room temperature (20-25° C.) in voltage clamp using conventional whole cell patch clamp methods (Neher, E., et al. (1978) Pfluegers Arch 375:219-228).
The amplifier used is the EPC-9 (HEKA-electronics, Lambrect, Germany) run by a Macintosh G3 computer via an ITC-16 interface. Experimental conditions are set with the Pulse-software accompanying the amplifier. […]
Coverslips with the cells are transferred to a 15 μl experimental chamber mounted on the stage of an inverted microscope (IMT-2, Olympus) supplied with Nomarski optics. […] The cells are held at a holding voltage of −60 mV and at the start of each experiment the current is continuously measured for 45 s to ensure a stable baseline. […] Current amplitudes are measured at the peak of the responses, and effect of the compounds is calculated as the amplitude at compound equilibrium divided by the amplitude of the current evoked by the pulse just before the compound is included. […]

[3] = test system: thermal hyperalgesia from carrageenan-induced paw inflammation; experiment: Carrageenan model, thermal hyperalgesia (Hargreaves' assay); type: in vivo, rat
Protocol: Acute inflammatory hyperalgesia is induced in rats by unilateral injection of […] of a 3% solution of 1-carrageenan into the plantar surface of the left hind paw 2-4 h prior to testing. Thermal nociceptive thresholds are determined according to the method described elsewhere (Hargreaves et al., 1988). Briefly, through the glass surface, a radiant heat source (8 V, 50 W projector bulb) is focused onto the plantar surface of the hind paw. The rat's paw-withdrawal latency to this stimulus is recorded to the nearest 0.1 s. Each latency score is an average of three trials, which are separated by at least 5 min. In all rats, both the injured and uninjured hind paws are similarly tested, allowing direct comparisons between inflamed and non-inflamed paws.

[4] = Xenopus laevis oocytes, two-electrode voltage clamp, Table 1, read-out: IC50 (Xo)
[5] = Xenopus laevis oocytes, two-electrode voltage clamp

| SMILES | inhibition at 50 µM (hASIC1a [1]; [5]) [%] | IC50 (hASIC1a [1]; [4]) [µM] | further results |
| --- | --- | --- | --- |
| CCN1CCc2c(-c3ccccc3)cc3cc[nH]c3c2C1 [Compound 9] |  | > 50 |  |
| CCN1CCc2c(-c3ccccc3)cc3c(C=O)c[nH]c3c2C1 [Compound 10] |  | > 50 |  |
| CCN1CCc2c(-c3ccccc3)cc3c(c2C1)NC(=O)C3SC (stereo not drawn) [Compound 1] | 25 to 45 |  |  |
| CCN1CCc2c(-c3cc(F)ccc3OC)cc3c(C=O)c[nH]c3c2C1 [Compound 8] |  | > 50 |  |
| CCN1CCc2c(-c3ccccc3)cc3c(C(N)=O)c[nH]c3c2C1 [Compound 11] |  | > 50 |  |
| CCN1CCc2c(-c3ccccc3)cc3c(N)n[nH]c3c2C1 [Compound 6] |  | > 50 |  |
| CCN1CCc2c(-c3ccccc3)cc3c(c2C1)NC(=O)C3 [Compound 2] | < 25 |  |  |
| CCN1CCc2c(-c3cc(F)ccc3OC)cc3cc[nH]c3c2C1 [Compound 7] |  | > 50 |  |

Second part, led by results:

| inhibition at 50 µM (hASIC1a [1]; [5]) [%] | SMILES | IC50 (hASIC1a [1]; [4]) [µM] | further results |
| --- | --- | --- | --- |
| < 25 | CCN1CCc2c(-c3ccccc3)cc3c(c2C1)NC(=O)C3=CNC [Compound 3] |  |  |
| > 50 | CCN1CCc2c(-c3ccccc3)cc3c(c2C1)NC(=O)C3=CN [Compound 5] |  | IC50 (hASIC1a [2]): 15 µM; effect on thermal hyperalgesia ([3]; 75 mg/kg s.c., given 30 min prior to carrageenan, 2-4 hours post-carrageenan, versus control paw level): completely reversed; ED50 ([3]; Rattus norvegicus, sc, 30 min prior to carrageenan, tested 2, 3 and 4 h post carrageenan): ~50 mg/kg; IC50 (hASIC1a [1]; three point dose-response, acid-induced hASIC1a currents in Xenopus laevis oocytes (FIG. 1A), read-out: IC50, half maximal inhibition of the acid-evoked response in hASIC1a): 10 µM |
| < 25 | CCN1CCc2c(-c3ccccc3)cc3c(c2C1)NC(=O)C3=CNCCO [Compound 4] |  |  |
